In patent publication US9073830B2 (Hyundai Pharm Co., Ltd., priority 2011, dated 2015):

Columns and labels:
mouse 11β-HSD1 = target: T1, mouse 11β-HSD1 (Mus musculus, UniProt P50172); assay: Enzyme activity analysis on mouse 11β-HSD1 (HTRF cortisol, liver microsomes); type: biochemical; settings: second value of cell
T1 construct: 100 ug/ml human/mouse liver microsomes; from tissue; host or cells: mouse liver microsomes
Procedure, shortened: (§1)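 Cortisol generated by mouse or human liver microsome 11β-HSD1 during 2 h at 37° C., measured by HTRF competition (cryptate anti-cortisol antibody, d2-cortisol, 2 h room temperature) against a cortisol standard curve. IC50 from percent inhibition versus no-compound control.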

human 11β-HSD2 = target: T2, human 11β-HSD2 (Homo sapiens, UniProt P80365); assay: 11b-HSD2 inhibition test in transfected CHO cells; type: cell-based; settings: at a concentration of 10 uM; CHO cells expressing human 11β-HSD2; read-out: 11b-HSD2 inhibitory effect
T2 construct: host or cells: CHO cells
T2 sequence (P80365 1-405): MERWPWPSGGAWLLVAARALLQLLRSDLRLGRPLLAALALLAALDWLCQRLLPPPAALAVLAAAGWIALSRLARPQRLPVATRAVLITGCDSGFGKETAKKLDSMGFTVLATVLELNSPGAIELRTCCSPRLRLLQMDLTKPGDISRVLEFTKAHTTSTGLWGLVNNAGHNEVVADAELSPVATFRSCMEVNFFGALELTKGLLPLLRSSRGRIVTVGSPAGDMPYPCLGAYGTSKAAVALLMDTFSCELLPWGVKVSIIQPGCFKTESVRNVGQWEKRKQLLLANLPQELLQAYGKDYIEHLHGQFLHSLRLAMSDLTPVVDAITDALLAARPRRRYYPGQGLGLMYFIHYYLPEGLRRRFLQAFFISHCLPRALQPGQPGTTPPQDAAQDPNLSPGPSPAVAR
Experimental: CHO cells were plated on a 96 well plate with RPMI (Wellgene) medium (phenol red free) containing 100 μl of 10% FBS, 100 ug/ml of penicillin and 100 ug/ml of streptomycin (2×10^4 cells/well). CHO cells were transfected with plasmid (Origene, SC122552) (pCMV6-XL5 vector) expressing human 11β-HSD2 by using FuGENE6 reagent (Promega, E2311). 24 hours after transfection, the transfected cells were added with 50 nM of cortisol (Sigma) in the presence or absence of the compound at various concentrations. On the following day (24 hours later), the supernatant liquid was obtained, and through HTRF (Cisbio, 62CO2PEB) analysis, a competitive amount of cortisol was measured.

glucocorticoid receptor = target: T3, glucocorticoid receptor (Homo sapiens, UniProt P04150); assay: Competitive binding of glucocorticoid receptor (LanthaScreen TR-FRET); settings: final concentration 10 uM
T3 construct: 4× GR-LBD up to 4 nM, and 4× Tb anti-GST Antibody up to 8 nM; purchased Invitrogen PV6040
T3 sequence (P04150 524-758 limits assumed): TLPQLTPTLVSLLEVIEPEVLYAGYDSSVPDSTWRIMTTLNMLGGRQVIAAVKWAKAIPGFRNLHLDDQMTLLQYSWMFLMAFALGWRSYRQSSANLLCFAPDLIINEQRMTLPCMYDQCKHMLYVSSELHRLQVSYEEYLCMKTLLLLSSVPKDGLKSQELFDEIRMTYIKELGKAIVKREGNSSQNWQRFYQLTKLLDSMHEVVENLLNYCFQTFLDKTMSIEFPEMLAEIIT
Experimental: In order to confirm the selective inhibitory ability of 11β-HSD1 inhibitor, competitive binding between 11β-HSD1 inhibitor and glucocorticoid ligand was tested by using LanthaScreen TR-FRET Glucocorticoid Receptor Competitive Binding Assay (Invitrogen, PV6040). The test material was dissolved in DMSO (Sigma, 276855) up to a 100× concentration of its final concentration (10 uM), and then Complete Nuclear Receptor Buffer F (1× stabilizing peptide, 5 mM DTT, Nuclear Receptor Buffer F) was used to dilute the test material up to a concentration of 2×, 4× Fluormone™ GS1 Green up to 20 nM, 4× GR-LBD up to 4 nM, and 4× Tb anti-GST Antibody up to 8 nM.
In order to obtain 60 μl of a final product through a reaction, on a 96-well plate, 2× test material 30 μl, 4× Fluormone™ GS1 Green 15 μl, and 4× GR-LBD/Tb anti-GST Antibody 15 μl were mixed, and reacted for 1 hour. In a positive control group, instead of the test material, Dexamethasone (Sigma, D1756), known as a ligand for glucocorticoid receptor, was used, and in a maximum active control group, DMSO was used, instead of the test material. In a negative control group, instead of the test material, DMSO was used, instead of Fluormone™ GS1 Green, Complete Nuclear Receptor Buffer F was used. On a 384-well white plate, 20 μl each was plated. By using Time-Resolved program in Flexstation3, a fluorescence value was read after excitation ([…]), emission (515 nM/486 nM), Delay time (100 μs), and Integration time (1500 μs) were programmed. By using the obtained value, a value of 515 nM/486 nM was calculated, from which the value in the negative control group was subtracted. The degree of binding of the test material to glucocorticoid receptor of was calculated by the active value of the test material with respect to the active value (100%) in the maximum active control group.

human 11β-HSD1 = target: T4, human 11β-HSD1 (Homo sapiens, UniProt P28845); assay: Enzyme activity analysis on human 11β-HSD1 (HTRF cortisol, liver microsomes); type: biochemical; settings: first value of cell
T4 construct: 100 ug/ml human/mouse liver microsomes; from tissue; host or cells: human liver microsomes
T4 sequence (P28845 whole entry): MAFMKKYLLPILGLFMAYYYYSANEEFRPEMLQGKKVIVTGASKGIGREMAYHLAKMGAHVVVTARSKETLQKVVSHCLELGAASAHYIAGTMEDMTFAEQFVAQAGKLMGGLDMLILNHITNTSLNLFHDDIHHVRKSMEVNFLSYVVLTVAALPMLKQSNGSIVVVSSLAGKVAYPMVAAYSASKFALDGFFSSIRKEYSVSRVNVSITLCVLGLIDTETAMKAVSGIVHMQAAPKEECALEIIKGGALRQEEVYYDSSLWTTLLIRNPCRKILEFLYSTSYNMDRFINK
Procedure, shortened: as §1

T1 sequence (P50172 whole entry): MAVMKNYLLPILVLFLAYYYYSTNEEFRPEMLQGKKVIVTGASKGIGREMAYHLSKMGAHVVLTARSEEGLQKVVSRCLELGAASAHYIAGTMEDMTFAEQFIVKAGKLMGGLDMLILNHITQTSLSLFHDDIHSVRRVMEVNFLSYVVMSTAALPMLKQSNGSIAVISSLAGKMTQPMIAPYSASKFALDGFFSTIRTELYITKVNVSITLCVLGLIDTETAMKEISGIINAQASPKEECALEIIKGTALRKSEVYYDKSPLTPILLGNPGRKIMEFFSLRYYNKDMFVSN

| SMILES | IC50 (mouse 11β-HSD1) [µM] | inhibition at 10 µM (human 11β-HSD2) [%] | binding to glucocorticoid receptor (glucocorticoid receptor) | IC50 (human 11β-HSD1) [µM] |
| --- | --- | --- | --- | --- |
| Cc1ccc(S(=O)(=O)NC(C)(C)C(=O)NC2C3CC4CC2CC(C(N)=O)(C4)C3)cc1F (stereo not drawn) [compound 92, N-4-(2-(3-fluoro-4-methylphenylsulfonamido)-2-methylpropanamido)adamantane-1-carboxyamide] | 0.077 | ≤ 40 | did not bind to glucocorticoid receptor | 0.032 |
| Cc1c(Cl)cccc1S(=O)(=O)NC(C)(C)C(=O)NC1C2CC3CC1CC(C(N)=O)(C3)C2 (stereo not drawn) [compound 97, N-4-(2-(2-methyl-3-chlorophenylsulfonamido)-2-methylpropanamido)adamantane-1-carboxyamide] | 0.01 | – | did not bind to glucocorticoid receptor | 0.005 |
| Cc1ccccc1S(=O)(=O)NC(C)(C)C(=O)NC1C2CC3CC1CC(C(N)=O)(C3)C2 (stereo not drawn) [compound 104, N-4-(2-(2-methylphenylsulfonamido)-2-methylpropanamido)adamantane-1-carboxyamide] | 0.046 | – | did not bind to glucocorticoid receptor | 0.014 |
| CC(C)(NS(=O)(=O)c1cccc2cccnc12)C(=O)NC1C2CC3CC1CC(C(N)=O)(C3)C2 (stereo not drawn) [compound 105, N-4-(2-(quinoline-8-sulfonamido)-2-methylpropanamido)adamantane-1-carboxyamide] | 0.006 | ≤ 40 | – | 0.023 |
| CC(C)(NS(=O)(=O)c1ccccc1[N+](=O)[O-])C(=O)NC1C2CC3CC1CC(C(N)=O)(C3)C2 (stereo not drawn) [compound 106, N-4-(2-(2-nitrophenylsulfonamido)-2-methylpropanamido)adamantane-1-carboxyamide] | 0.04 | ≤ 40 | did not bind to glucocorticoid receptor | 0.041 |
| CC(C)(NS(=O)(=O)c1ccccc1C(F)(F)F)C(=O)NC1C2CC3CC1CC(C(N)=O)(C3)C2 (stereo not drawn) [compound 108, N-4-(2-(2-trifluoromethylphenylsulfonamido)-2-methylpropanamido)adamantane-1-carboxyamide] | 0.029 | ≤ 40 | did not bind to glucocorticoid receptor | 0.011 |
| CC(C)(NS(=O)(=O)c1c(Cl)cccc1Cl)C(=O)NC1C2CC3CC1CC(C(N)=O)(C3)C2 (stereo not drawn) [compound 121] | 0.004 | ≤ 40 | – | 0.009 |
| NC(=O)C12CC3CC(C1)C(NC(=O)C1(NS(=O)(=O)c4cccc5cccnc45)CCC1)C(C3)C2 (stereo not drawn) [compound 146, N-4-(1-(quinoline-8-sulfonamido)cyclobutanecarboxyamido)adamantane-1-carboxyamide] | 0.02 | ≤ 40 | – | 0.029 |
